Series [1] in a line: Area under the curve determinations of plasma levels in rats (rrAUC). The series is classed as in vivo. The settings on record: rapid rat AUC of the drug (parent) in plasma; oral 10 mg/kg, fasted rats, blood 0.5-6 h post-dosing. The procedure: To gain insight into the pharmacokinetic properties of the compounds of formula (I), plasma levels of the compounds in rats were determined according to the protocol described in Korfmacher, W. A,; Cox, K. A.; Ng, K. J.; Veals, J.; Hsieh, Y.; Wainhaus, S.; Broske, L; Prelusky, D.; Nomeir, A.; White, R. E. Rapid Commun. Mass Spectrorn, 2001, 15, 335. Briefly, rats, after an overnight fast, were dosed orally with the test compound at a dose of 10 mg/kg in a 5 mL/kg dose volume. Blood was collected at 0.5, 1, 2, 3, 4, and 6 h post-dosing. Mass spectrometry using high performance liquid chromatography was used to identify and measure the concentrations of the test compounds in the plasma at the various time points. The parent ion of each test compound was used to identify and quantitate the compounds in plasma.

The subject of series [2] is TNF-α production from human whole blood. Briefly: Inhibition of TNF-α production from human whole blood (hWBA). In kind it is cell-based. The following applies: human whole blood diluted 1:1, 1 h pre-incubation, LPS, 3.5 h, TNF-α by ELISA; N/A = Not Active. The procedure:
The compounds' ability to inhibit TACE activity can also be determined in human whole blood using the assay conditions described n Example 15 below.
Human whole blood was diluted 1:1 with serum free medium (RPMI, L-glutamine, Pen-Strep, HEPES) and incubated with a test compound in a final volume of 360 μl for 1 h at 37° C. Forty microliters of LPS (10 μg/mL) was then added. Supernatant was collected after 3.5 h incubation and the concentration of TNF-α was determined by ELISA (R&D Systems). The concentration of the test compound which inhibits 50% of the amount of TNF-α from the untreated control was determined.
On the technique in general: ELISA stands for enzyme-linked immunosorbent assay.

A word on the IC50: it is the concentration at which inhibition is half-maximal.

Structures are written as SMILES.

`COc1ccc2c(c1)C(=O)N(C[C@@]1(C#Cc3ccc(C(N)=O)cc3)NC(=O)N(COC(=O)C(C)(C)C)C1=O)C2` [Compound 15]: the “PK (rrAUC) parent” value in series [1] is 0 µM·h. In series [2], this compound came in with an IC50 of 0.188 µM.
For `COc1ccc2c(c1F)C(=O)N(C[C@@]1(c3cc4nc(-c5cn[nH]c5)ccc4o3)NC(=O)N(COC(=O)C(C)(C)C)C1=O)C2` [Compound 16], in that order: 0.249 µM·h and 0.141 µM.
Take `COc1ccc2c(c1)C(=O)N(C[C@@]1(c3cc4nc(-c5c(C)nn(C)c5C)ccc4o3)NC(=O)N(COC(=O)C(C)(C)C)C1=O)C2` [Compound 17]: in series [1], the “PK (rrAUC) parent” value worked out at 2.005 µM·h. In addition, the concentration for half-maximal inhibition (IC50) in series [2] came to 0.626 µM.
For `COc1ccc2c(c1F)C(=O)N(C[C@@]1(c3cc4nc(N)ccc4o3)NC(=O)N(COC(=O)C(C)(C)C)C1=O)C2` [Compound 18], in that order: 0.351 µM·h and 0.178 µM.
In the case of `COc1ccc2c(c1F)C(=O)N(C[C@@]1(c3cc4ncc(C(N)=O)cc4o3)NC(=O)N(COC(=O)C(C)(C)C)C1=O)C2` [Compound 19], in series [1], the “PK (rrAUC) parent” value turned out to be 0.094 µM·h. This compound also registered a concentration for half-maximal inhibition (IC50) in series [2] of 0.101 µM.
In the same order, the values of `COc1ccc2c(c1)C(=O)N(C[C@@]1(c3cc4nc(N5CCCNC5=O)ccc4o3)NC(=O)N(COC(=O)C(C)(C)C)C1=O)C2` [Compound 20] are 0.148 µM·h and 0.282 µM.
Turning to `COc1ccc2c(c1)C(=O)N(C[C@@]1(c3cc4nc(N5CC[C@@H](O)C5)ccc4o3)NC(=O)N(COC(=O)C(C)(C)C)C1=O)C2` [Compound 21], the “PK (rrAUC) parent” value in series [1] amounted to 2.684 µM·h. In series [2], this compound showed a half-inhibitory concentration (IC50) of 0.339 µM.
As for `COc1ccc2c(c1F)C(=O)N(C[C@@]1(c3cc4c(OC(C)=O)nccc4o3)NC(=O)N(COC(=O)C(C)(C)C)C1=O)C2` [Compound 22], in series [1], the “PK (rrAUC) parent” value came to 0.823 µM·h. In series [2], this compound gave an IC50 of 2.82 µM.
In the same order, the values of `CCN1CCN(c2ccc3oc([C@]4(CN5Cc6ccc(OC)cc6C5=O)NC(=O)N(COC(=O)C(C)(C)C)C4=O)cc3n2)CC1` [Compound 24] are 0.655 µM·h and 0.176 µM.
With `COc1ccc2c(c1)C(=O)N(C[C@@]1(C#Cc3ccc(N4CCNCC4)cc3)NC(=O)N(COC(=O)C(C)(C)C)C1=O)C2` [Compound 25], the “PK (rrAUC) parent” value in series [1] amounted to 0 µM·h. In series [2], this compound displayed a concentration for half-maximal inhibition (IC50) of 0.212 µM.
In the same order, the values of `COc1ccc2c(c1)C(=O)N(C[C@@]1(c3cc4nc(NS(C)(=O)=O)ccc4o3)NC(=O)N(COC(=O)C(C)(C)C)C1=O)C2` [Compound 26] are 0 µM·h and 0.645 µM.
In the same order, the values of `COc1ccc2c(c1)C(=O)N(C[C@@]1(c3cc4cc(-c5cc(=O)[nH]c(N)n5)ccc4o3)NC(=O)N(COC(=O)C(C)(C)C)C1=O)C2` [Compound 27] are 0 µM·h and 0.94 µM.
In the same order, the values of `COc1ccc2c(c1)C(=O)N(C[C@@]1(c3cc4nc(N5CCNCC5)ccc4o3)NC(=O)N(COC(=O)C(C)(C)C)C1=O)C2` [Compound 28] are 0 µM·h and 0.156 µM.
Turning to `COc1ccc2c(c1F)C(=O)N(C[C@@]1(c3cc4cc(-c5cc(=O)[nH]c(N)n5)ccc4o3)NC(=O)N(COC(=O)C(C)(C)C)C1=O)C2` [Compound 29], the “PK (rrAUC) parent” value in series [1] came to 0 µM·h. This compound displayed a concentration for half-maximal inhibition (IC50) in series [2] of 0.199 µM.
Consider `COc1ccc2c(c1)C(=O)N(C[C@@]1(c3cc4nc(N5C[C@H](O)CC5=O)ccc4o3)NC(=O)N(COC(=O)C(C)(C)C)C1=O)C2` [Compound 31], for which the “PK (rrAUC) parent” value in series [1] is 0.334 µM·h. This compound also came in with an IC50 in series [2] of 0.224 µM.
With `COc1ccc2c(c1)C(=O)N(C[C@@]1(c3cc4cc(-c5cc(=O)[nH]c(N)n5)cnc4o3)NC(=O)N(COC(=O)C(C)(C)C)C1=O)C2` [Compound 33], the “PK (rrAUC) parent” value in series [1] came out at 0 µM·h. Besides, the 50% inhibitory concentration (IC50) in series [2] was 0.375 µM.
For `COc1ccc2c(c1)C(=O)N(C[C@@]1(c3cc4nc(Nc5cccnc5)ccc4o3)NC(=O)N(COC(=O)C(C)(C)C)C1=O)C2` [Compound 34], the “PK (rrAUC) parent” value in series [1] is 0.094 µM·h. In series [2], this compound showed an IC50 of 1.33 µM.
In the same order, the values of `COc1ccc2c(c1)C(=O)N(C[C@@]1(c3cc4cnccc4o3)NC(=O)N(COC(=O)[C@H](N)C(C)C)C1=O)C2` [Compound 35.3] are 4.316 µM·h and 0.244 µM.
As to `COc1ccc2c(c1F)C(=O)N(C[C@@]1(C#Cc3cncc(NC(=O)C4CCN(C)CC4)c3)NC(=O)N(COC(=O)C(C)(C)C)C1=O)C2` [Compound 36], in series [1], the “PK (rrAUC) parent” value was found to be 0 µM·h. Also, the IC50 in series [2] was determined as 0.171 µM.
Take `COc1ccc2c(c1F)C(=O)N(C[C@@]1(c3cc4nc(N5C[C@H](O)CC5=O)ccc4o3)NC(=O)N(COC(=O)C(C)(C)C)C1=O)C2` [Compound 37]: in series [1], the “PK (rrAUC) parent” value stood at 0 µM·h. In series [2], this compound displayed a half-inhibitory concentration (IC50) of 0.148 µM.
For `COc1ccc2c(c1F)C(=O)N(C[C@@]1(c3cc4nc(N5C[C@@H](O)CC5=O)ccc4o3)NC(=O)N(COC(=O)C(C)(C)C)C1=O)C2` [Compound 38], in that order: 1.736 µM·h and 0.094 µM.
In the same order, the values of `CCOc1ccc2c(c1F)C(=O)N(C[C@@]1(c3cc4nc(N5CCN(CC)CC5)ccc4o3)NC(=O)N(COC(=O)C(C)(C)C)C1=O)C2` [Compound 39] are 0.927 µM·h and 0.241 µM.
Regarding `COc1ccc2c(c1)C(=O)N(C[C@@]1(C#Cc3ccc(-c4nc(-c5cnn(C)c5)ccc4OC(=O)C(C)(C)C)cc3)NC(=O)N(COC(=O)C(C)(C)C)C1=O)C2` [Compound 43], the “PK (rrAUC) parent” value in series [1] came to 0 µM·h. In series [2], this compound showed an IC50 of 0.336 µM.
Take `COc1ccc2c(c1F)C(=O)N(C[C@@]1(C#Cc3ccc(-c4nc(-c5cnn(C)c5)ccc4OC(=O)C(C)(C)C)c(F)c3)NC(=O)N(COC(=O)C(C)(C)C)C1=O)C2` [Compound 44]: the “PK (rrAUC) parent” value in series [1] is 0 µM·h. Also, in series [2], the IC50 worked out at 0.281 µM.
For the compound `COc1ccc2c(c1)C(=O)N(C[C@@]1(c3cc4ncccc4o3)NC(=O)N(C(C)C)C1=O)C2` [Compound 51], the “PK (rrAUC) parent” value in series [1] is 0.37 µM·h. The concentration for half-maximal inhibition (IC50) in series [2] was 7.15 µM.
In the same order, the values of `COc1ccc2c(c1)C(=O)N(C[C@@]1(c3cc4cnccc4o3)NC(=O)N(COC(=O)OC3CCOCC3)C1=O)C2` [Compound 59] are 13.539 µM·h and 0.184 µM.
As to `COc1ccc2c(c1)C(=O)N(C[C@@]1(c3cc4cnccc4o3)NC(=O)N(C(C)OC(=O)OC3CCOCC3)C1=O)C2` (stereo partly shown) [Compound 61], the “PK (rrAUC) parent” value in series [1] is 0 µM·h. The same compound showed an IC50 in series [2] of 0.685 µM.
For the compound `COc1ccc2c(c1)C(=O)N(C[C@@]1(c3cc4cnccc4o3)NC(=O)N(COC(=O)OC(C)C)C1=O)C2` [Compound 62], the “PK (rrAUC) parent” value in series [1] is 0 µM·h. This compound also showed an IC50 in series [2] of 0.25 µM.
In the same order, the values of `COc1ccc2c(c1)C(=O)N(C[C@@]1(c3cc4cnccc4o3)NC(=O)N(COC(=O)OCC3COCO3)C1=O)C2` (stereo partly shown) [Compound 63.1] are 0 µM·h and 0.449 µM.
In the same order, the values of `CCOC(=O)[C@H](C)OC(=O)OCN1C(=O)N[C@@](CN2Cc3ccc(OC)cc3C2=O)(c2cc3cnccc3o2)C1=O` [Compound 63.2] are 0 µM·h and 0.738 µM.
For `COc1ccc2c(c1)C(=O)N(C[C@@]1(c3cc4cnccc4o3)NC(=O)N(COC(=O)OC3CCN(C)CC3)C1=O)C2` [Compound 63.3], in that order: 13.539 µM·h and 1.4 µM.
On to `COc1ccc2c(c1)C(=O)N(C[C@@]1(c3cc4cnccc4o3)NC(=O)N(COC(=O)OCCN(C)C)C1=O)C2` [Compound 63.4], for which, in series [1], the “PK (rrAUC) parent” value is 1.604 µM·h. Further, the half-maximal inhibitory concentration (IC50) in series [2] is 0.427 µM.
For `COc1ccc2c(c1F)C(=O)N(C[C@@]1(c3cc4cc5c(c(F)c4o3)C(=O)NC5)NC(=O)N(COC(=O)c3ccccc3)C1=O)C2` [Compound 64], the “PK (rrAUC) parent” value in series [1] stood at 5.393 µM·h. Besides, the IC50 in series [2] stood at 0.169 µM.
In the case of `COc1ccc2c(c1)C(=O)N(C[C@@]1(c3cc4ncccc4o3)NC(=O)N(COC(=O)c3ccccc3OC(C)=O)C1=O)C2` [Compound 65], the “PK (rrAUC) parent” value in series [1] was 4.426 µM·h. This compound also displayed a half-inhibitory concentration (IC50) in series [2] of 0.56 µM.
Turning to `COc1ccc2c(c1)C(=O)N(C[C@@]1(c3cc4cnccc4o3)NC(=O)N(COC(=O)c3cccnc3)C1=O)C2` [Compound 67], the “PK (rrAUC) parent” value in series [1] was found to be 3.448 µM·h. This compound also returned an IC50 in series [2] of 0.504 µM.
As to `COc1ccc2c(c1)C(=O)N(C[C@@]1(c3cc4cnccc4o3)NC(=O)N(COC(=O)N3CCN(C)CC3)C1=O)C2` [Compound 68], the “PK (rrAUC) parent” value in series [1] came out at 13.539 µM·h. In series [2], this compound displayed a half-maximal inhibitory concentration (IC50) of 1.31 µM.
In the same order, the values of `COc1ccc2c(c1)C(=O)N(C[C@@]1(c3cc4cnccc4o3)NC(=O)N(CN(C)C(=O)C(C)(C)C)C1=O)C2` [Compound 76.2] are 0.31 µM·h and 0.754 µM.
In the same order, the values of `COc1ccc2c(c1)C(=O)N(C[C@]1(c3cc4cnccc4o3)C(=O)N(COC(=O)c3ccccc3OC(C)=O)C(=O)N1C(C)=O)C2` [Compound 83] are 0 µM·h and 0.931 µM.
